According to BindingDB's records for doi:10.1124/jpet.104.067884 (Sanofi-Synthelabo Recherche, 2004):

How the values were obtained:
Cannabinoid receptor 2 = Cannabinoid receptor 2 (Homo sapiens, UniProt P34972)
Cannabinoid receptor 1 = Cannabinoid receptor 1 (Homo sapiens, UniProt P21554)
Chain of Cannabinoid receptor 1 (P21554 whole entry): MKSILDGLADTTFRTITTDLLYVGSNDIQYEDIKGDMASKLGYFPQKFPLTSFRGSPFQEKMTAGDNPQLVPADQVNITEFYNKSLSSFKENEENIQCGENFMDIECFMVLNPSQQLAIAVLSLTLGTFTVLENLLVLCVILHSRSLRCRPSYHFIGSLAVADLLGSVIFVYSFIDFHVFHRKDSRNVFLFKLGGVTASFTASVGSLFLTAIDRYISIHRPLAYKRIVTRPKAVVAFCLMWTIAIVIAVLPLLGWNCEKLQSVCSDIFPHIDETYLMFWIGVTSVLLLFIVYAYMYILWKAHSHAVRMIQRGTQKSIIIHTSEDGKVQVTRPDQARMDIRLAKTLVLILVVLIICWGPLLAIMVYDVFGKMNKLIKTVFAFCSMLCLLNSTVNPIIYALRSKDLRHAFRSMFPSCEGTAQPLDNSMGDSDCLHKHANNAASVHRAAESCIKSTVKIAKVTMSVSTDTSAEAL

Chain of Cannabinoid receptor 2 (P34972 whole entry): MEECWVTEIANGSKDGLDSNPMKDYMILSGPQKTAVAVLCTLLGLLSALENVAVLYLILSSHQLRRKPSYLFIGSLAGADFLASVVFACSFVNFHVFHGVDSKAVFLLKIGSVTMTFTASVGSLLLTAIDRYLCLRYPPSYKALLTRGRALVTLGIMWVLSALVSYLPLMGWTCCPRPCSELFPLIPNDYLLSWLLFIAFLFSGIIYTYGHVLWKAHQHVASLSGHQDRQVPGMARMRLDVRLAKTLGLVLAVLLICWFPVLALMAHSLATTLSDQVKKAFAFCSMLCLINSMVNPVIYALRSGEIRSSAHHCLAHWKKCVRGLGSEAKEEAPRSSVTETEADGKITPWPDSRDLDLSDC

## CCc1c(C(=O)NN2CCCCC2)nn(-c2ccc(Cl)cc2Cl)c1-c1ccc(Br)cc1 [SR 147778]
Cannabinoid receptor 2
  Ki: 442 nM
Cannabinoid receptor 1
  Ki: 3.5 nM
